The values below are quoted from earlier work in patent publication US7521425B2, “Anti-angiogenic compounds” (Covx Technologies Ireland Limited, priority 2005, dated 2009).

Structures are written as SMILES.

One series has as its target m38C2. Particulars: against immobilized BSA-conjugated β-diketone 1, read-out: apparent equilibrium dissociation constant.
A further series has as its target h38C2. The following applies: against immobilized BSA-conjugated β-diketone 1, read-out: apparent equilibrium dissociation constant.

For `CC(=O)CC(C)=O` [β-diketone 2], the Kd on m38C2 is 38 µM; at h38C2 it was 7.6 µM.

Turning to `CC(=O)CC(=O)CCc1ccccc1` [β-diketone 3], the Kd is 0.43 µM on m38C2 and 1 µM on h38C2.
